Measurements reported in patent US20260138969A1 (Korea Research Institute of Chemical Technology, priority 2023, published 2026).

How the values were obtained:
[1] = system: PC12 cells; test: Neuronal protective efficacy against MPP+ (MTT); type: cell-based; conditions: Rattus norvegicus, PC-12, MPP 2 mM, Control = 100, read-out: cell viability (AVE); for viability at 0.1 µM: compound 0.1 μM; for viability at 0.3 µM: compound 0.3 μM; for viability at 1 µM: compound 1 μM
Experimental: The neuronal toxicity substances 6-OHDA (6-hydroxydopamine hydrobromide) and MPP+ (1-methyl-4-phenylpyridinium) were purchased from Sigma-Aldrich (Saint Louis, MO, USA) and made into 100 mM DMSO stock. PC12 cells were seeded on 96-well plates with 4 pieces of 1×10 per well and incubated for one day. The cells were pretreated with each concentration of embodied compound for 1 h. Subsequently, 40 μM 6-OHDA and 2 mM MPP^+ were added and incubated for 24 hours, respectively. Subsequently, cell viability was measured using MTT (Invitrogen, MA, USA).

[2] = molecular target: T1, recombinant human ASK1 protein (Homo sapiens, UniProt Q99683); test: Evaluation of ASK1 inhibition activity ([gamma-33P]-ATP, scintillation counting); type: biochemical; conditions: for remaining activity at 0.5 µM: activity of group without compound set at 100%, read-out: Remaining kinase activity (%) at 0.5 uM
T1 sequence (Q99683 1-1374): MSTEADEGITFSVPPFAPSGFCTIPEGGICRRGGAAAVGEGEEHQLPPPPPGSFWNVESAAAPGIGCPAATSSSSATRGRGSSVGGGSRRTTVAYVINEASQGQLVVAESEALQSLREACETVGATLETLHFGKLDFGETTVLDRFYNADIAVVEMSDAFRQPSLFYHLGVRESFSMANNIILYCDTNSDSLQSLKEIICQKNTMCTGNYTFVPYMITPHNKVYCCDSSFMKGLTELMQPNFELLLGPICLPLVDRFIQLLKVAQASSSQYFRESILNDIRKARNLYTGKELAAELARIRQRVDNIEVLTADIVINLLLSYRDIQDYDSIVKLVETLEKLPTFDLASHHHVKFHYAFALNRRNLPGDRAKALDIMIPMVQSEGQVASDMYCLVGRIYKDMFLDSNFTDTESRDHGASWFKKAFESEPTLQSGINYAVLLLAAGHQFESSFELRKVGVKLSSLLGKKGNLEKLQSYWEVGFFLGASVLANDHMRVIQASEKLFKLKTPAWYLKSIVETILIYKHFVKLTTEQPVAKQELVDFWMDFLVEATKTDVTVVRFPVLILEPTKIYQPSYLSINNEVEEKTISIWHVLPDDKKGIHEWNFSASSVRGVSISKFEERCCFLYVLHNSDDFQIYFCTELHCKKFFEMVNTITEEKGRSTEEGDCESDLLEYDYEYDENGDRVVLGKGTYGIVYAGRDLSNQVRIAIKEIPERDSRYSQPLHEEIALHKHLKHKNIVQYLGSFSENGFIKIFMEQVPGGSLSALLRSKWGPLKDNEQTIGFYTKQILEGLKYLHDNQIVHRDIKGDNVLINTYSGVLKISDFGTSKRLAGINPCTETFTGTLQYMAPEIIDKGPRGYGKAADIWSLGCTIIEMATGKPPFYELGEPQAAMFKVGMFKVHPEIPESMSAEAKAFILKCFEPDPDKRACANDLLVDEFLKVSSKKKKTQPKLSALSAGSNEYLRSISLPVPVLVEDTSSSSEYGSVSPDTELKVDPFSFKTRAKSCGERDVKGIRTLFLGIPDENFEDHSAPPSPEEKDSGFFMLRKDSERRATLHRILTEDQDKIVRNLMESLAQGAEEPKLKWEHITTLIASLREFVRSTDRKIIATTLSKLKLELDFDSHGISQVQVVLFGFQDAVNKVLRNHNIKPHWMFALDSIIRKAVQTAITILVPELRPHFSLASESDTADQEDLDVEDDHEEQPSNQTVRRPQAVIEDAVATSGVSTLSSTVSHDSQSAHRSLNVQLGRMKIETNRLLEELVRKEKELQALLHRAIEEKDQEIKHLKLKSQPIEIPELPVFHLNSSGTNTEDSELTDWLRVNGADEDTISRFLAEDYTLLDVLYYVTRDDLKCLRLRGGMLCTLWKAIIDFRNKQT
Experimental: The recombinant human ASK1 protein was initiated by adding a mixture of Mg/ATP to the reaction solution (8 mM MOPS PH 7.0, 0.2 mM EDTA, 0.33 mg/mL myelin basic protein, 10 mM Mg Acetate and [gamma-33P]-ATP), and the reaction was terminated by adding 0.5% phosphoric acid after 40 min at room temperature.

[3] = system: α-Syn transgenic Parkinson's disease mouse model; test: α-Syn transgenic Parkinson's disease mouse model: neurological score (modified Irwin test); type: in vivo; conditions: Example 3 2/10/50 mg/kg, Example 2 2 mg/kg PO QD 5 months; vs TG+carrier (G2)
Experimental: The test drug was administered once daily (QD) via oral administration (PO) with a solution of 5 ml/kg for 5 months from 4 months to 9 months of age. Motor behavior tests (beam test) and neurological scores (modified Irwin test) were performed at 4 months (before administration), 7 months, and 9 months. After the final behavioral test, tissue samples were taken. Weight was measured on the same day once a week from 4 months of age until the end of the study.
Scores were recorded by direct observation of mice in cages for neurological behavioral disorders, except for startle reflex, tail pinch, and righting reflex. To test the startle reflex, a small remote control was used to make loud noises and check behaviors such as jumping, stopping, and blinking quickly. For the […] reflex, each mouse was removed from the cage and placed with its back facing the floor so that the mouse could correct its posture on its own. The tail pinch reflex was tested by gently squeezing the tip of the tail with forceps.
A score of 0 was given if there were normal or no abnormal features such as motor activity, 1 point if mild abnormalities were observed, and 2 to 3 points were given if serious abnormalities were observed. The scores for all observed behaviors for each mouse were added, and the average of the added scores for each group was calculated.

[4] = system: SOD1 G93A transgenic ALS mouse model; test: SOD1 G93A transgenic ALS mouse model: survival; type: in vivo; conditions: 30 mg/kg PO QD from 8 weeks of age until death; vs G2
Experimental: The test drug was administered once daily (QD) via oral administration (PO) in a solution of 5 mL/kg from 8 weeks of age until death. Body weight was measured weekly, and disease score was measured daily from 8 weeks until the death of the animal. Motor behavior tests (grip strength) and neurological score tests (modified Irwin test) were performed at 9, 11, 13, 15, 17, 19, and 21 weeks, respectively. The survival of the mice was monitored daily.
The survival of the mice was monitored daily. The survival age of mice was recorded and labeled as Kaplan Meier survival plots.

Structure (SMILES) | viability at 0.1 µM [1] [%] | viability at 0.3 µM [1] [%] | viability at 1 µM [1] [%] | IC50 [2] [nM] | remaining activity at 0.5 µM [2] [%] | neurological score [3] | survival rate [4]
Cc1cc(F)c(C(=O)Nc2cccc(-n3nnc4c3CCCC4)n2)cc1-n1cnc(C2CC2)c1 [Example 3, 5-(4-cyclopropyl-1H-imidazole-1-yl)-2-fluoro-4-methyl-N-(6-(4,5,6,7-tetrahydro-1H-benzo[d][1,2,3]triazole-1-yl)pyridine-2-yl)benzamide] | 87.4 | 87.6 | 89.9 | 73 | 7 | significantly reduced the neurological score of TG mice compared to G2 | tendency to improve survival rate, although it was not significant compared to group G2
Cc1cc(F)c(C(=O)Nc2cccc(-n3nnc4c3CCC4)n2)cc1-n1cnc(C2CC2)c1 [Example 2, 5-(4-cyclopropyl-1H-imidazole-1-yl)-N-(6-(5,6-dihydrocyclopenta[d][1,2,3]triazole-1 (4H)-yl)pyridine-2-yl)-2-fluoro-4-methylbenzamide] | 83.9 | 91.7 | 92.4 | 37 | 2 | significantly reduced the neurological score of TG mice compared to G2 | 
